Reference: patent publication US20090215743A1, “Tricyclic benzazepine derivatives and their use” (Bayer HealthCare AG, priority 2004, published 2009)

Tested on: sterol biosynthesis
Experiment: Inhibition of squalene and cholesterol synthesis in the liver of mice (sterol biosynthesis)
Format: in vivo
Details: male NMRI mice, 3 mg/kg p.o., 14C-mevalonolactone, liver lipid fraction
Method: Male NMRI mice are kept on normal rodent diet (NAFAG 3883) in metabolism cages. The light/dark cycle comprises 12 hours, from 06.00 to 18.00 and from 18.00 to 06.00. The animals are employed with a body weight of between 25 g and 40 g in groups of 8-10 animals in the experiments. Feed and drinking water are available to the animals ad libitum.
The substances are, according to their solubility, administered orally in aqueous tragacanth suspension (0.5%) or in Solutol HS15/saline solution (20:80) by gavage in a volume of 10 ml/kg of body weight or else injected subcutaneously in Solutol HS15/saline solution (20:80) or DMSO/saline solution (20:80). The corresponding control groups receive only the corresponding formulating agent without active substance. One or two hours after administration of the substance, the animals receive intraperitoneal injections of radiolabelled ^14C-mevalonolactone. One or two hours after the ^14C-mevalonolactone injection, or 24 hours after the administration of substance, the animals are sacrificed, the abdominal cavity is opened, and liver tissue is removed. Immediately after removal, the tissue is dried on the surface, weighed and homogenized in isopropanol. The further processing and extraction of the synthesized squalene and its secondary products takes place by a method of I. Duncan et al. (J. Chromatogr. 1979, 162), modified by H. Bischoff et al. (Atherosclerosis 1997, 135).
The extracted lipid fraction is taken up in 1 ml of isopropanol, transferred into scintillation vials, made up with 15 ml of Ultima Gold® scintillation fluid (Packard) and counted in a liquid scintillation counter (Beckmann Coulter LS 6500).
After calculation of the specific ^14C activity of the lipid fraction (dpm/g of liver tissue), the rate of synthesis of the radiolabelled ^14C squalene and of the ^14C secondary metabolites of the animals treated with the active substance is compared with the rate of synthesis of the radiolabelled ^14C squalene and of the ^14C secondary metabolites of the control animals treated only with formulating agent. A reduction in the rate of synthesis by ≧30% compared with the rate of synthesis for the control animals (=100%) is regarded as pharmacologically active if the statistical assessment by Student's t test results in a p value of <0.05.

**Q.** For `COc1cccc(C2OC(CC(=O)O)c3nnc(C(C)C)n3-c3ccc(Cl)cc32)c1OC` (racemic) [Example 3, [8-Chloro-6-(2,3-dimethoxyphenyl)-1-isopropyl-4H,6H-[1,2,4]triazolo[4,3-a][4,1]benzoxazepin-4-yl]acetic acid], which “Inhibition relative to the untreated control group” value is on record?
**A.** 81%

**Q.** For `COc1cccc(C2OC(CC(=O)N3CCN(C(C)=O)CC3)c3nnc(C(C)C)n3-c3ccc(Cl)cc32)c1OC` (stereo not shown) [Example 50, 4-[2-(4-Acetylpiperazin-1-yl)-2-oxoethyl]-8-chloro-6-(2,3-dimethoxyphenyl)-1-isopropyl-4H,6H-[1,2,4]triazolo[4,3-a][4,1]benzoxazepine], which “Inhibition relative to the untreated control group” value is on record?
**A.** 75%

**Q.** Which “Inhibition relative to the untreated control group” value does the source give for `COc1cccc(C2OC(CC(=O)N3CCSC3)c3nnc(C(C)C)n3-c3ccc(Cl)cc32)c1OC` (stereo not shown) [Example 41, 8-Chloro-6-(2,3-dimethoxyphenyl)-1-isopropyl-4-[2-oxo-2-(1,3-thiazolidin-3-yl)ethyl]-4H,6H-[1,2,4]triazolo[4,3-a][4,1]benzoxazepine] here?
**A.** 81%

**Q.** For `COc1cccc(C2OC(CC(=O)O)c3nnc(C(C)(C)CO)n3-c3ccc(Cl)cc32)c1OC` (racemic) [Example 62-2, [8-Chloro-6-(2,3-dimethoxyphenyl)-1-(2-hydroxy-1,1-dimethylethyl)-4H,6H-[1,2,4]triazolo[4,3-a]-[4,1]benzoxazepin-4-yl]acetic acid], which “Inhibition relative to the untreated control group” value is on record?
**A.** 77%
